Test results: patent US20100227853A1, “INHIBITORS OF CYCLIC AMP PHOSPHODIESTERASES” (Trustees of Boston College, priority 2008, published 2010)
Read-outs that look alike come from different tables or passages of the source.

Key:
PDE4A1 = target: T1, PDE4A1 (Mus musculus, UniProt O89084); experiment: 5FOA growth assay (high throughput screen, ED50) in fission yeast strain expressing PDE4A1; assay type: cell-based; settings: for Composite Z score, PDE4A1: high throughput 5FOA growth screen, greater than 8.53 = statistically-significant inhibitor; for EC50: OD600 0.6
T1 construct: targets used in the assays are full-length proteins (as opposed to simply the catalytic domain); expressed in transfected cells; host or cells: Schizosaccharomyces pombe, PDE gene integrated in place of cgs2
T1 sequence (O89084 1-610 isoform O89084-2): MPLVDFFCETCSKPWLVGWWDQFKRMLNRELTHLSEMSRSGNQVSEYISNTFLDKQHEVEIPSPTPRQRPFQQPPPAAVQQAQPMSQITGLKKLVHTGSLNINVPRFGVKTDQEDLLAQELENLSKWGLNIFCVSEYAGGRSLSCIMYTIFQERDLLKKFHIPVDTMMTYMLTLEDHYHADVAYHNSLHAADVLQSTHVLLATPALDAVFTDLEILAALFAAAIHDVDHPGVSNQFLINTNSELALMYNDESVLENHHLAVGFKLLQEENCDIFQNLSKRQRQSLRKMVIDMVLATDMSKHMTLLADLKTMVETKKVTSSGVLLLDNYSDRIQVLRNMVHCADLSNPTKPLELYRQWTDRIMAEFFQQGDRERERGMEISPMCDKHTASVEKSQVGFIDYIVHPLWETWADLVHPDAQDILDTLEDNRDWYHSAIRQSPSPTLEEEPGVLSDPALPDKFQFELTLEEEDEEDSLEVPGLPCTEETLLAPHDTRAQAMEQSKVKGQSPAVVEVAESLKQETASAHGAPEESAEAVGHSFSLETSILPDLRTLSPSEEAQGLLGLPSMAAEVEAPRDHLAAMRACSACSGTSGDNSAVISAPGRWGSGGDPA
Procedure, shortened: (§1)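 Fission yeast strains carrying mouse PDE4A1 or PDE4B3 and an fbp1-ura4 reporter were pregrown in EMM with 0.5–2.5 mM cAMP, then seeded at 0.5–4×10^5 cells/ml in 5FOA medium with compound. Growth was read as OD600 after 48 h at 30° C; composite Z scores were derived.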

PDE4B3 = target: T2, PDE4B3 (Mus musculus, UniProt Q8VBU5); experiment: 5FOA growth assay in fission yeast strain expressing PDE4B3; assay type: cell-based, Murine; settings: for Composite Z score, PDE4B3: high throughput 5FOA growth screen
T2 construct: targets used in the assays are full-length proteins (as opposed to simply the catalytic domain); expressed in transfected cells; host or cells: Schizosaccharomyces pombe, PDE gene integrated in place of cgs2
T2 sequence (Q8VBU5 1-721): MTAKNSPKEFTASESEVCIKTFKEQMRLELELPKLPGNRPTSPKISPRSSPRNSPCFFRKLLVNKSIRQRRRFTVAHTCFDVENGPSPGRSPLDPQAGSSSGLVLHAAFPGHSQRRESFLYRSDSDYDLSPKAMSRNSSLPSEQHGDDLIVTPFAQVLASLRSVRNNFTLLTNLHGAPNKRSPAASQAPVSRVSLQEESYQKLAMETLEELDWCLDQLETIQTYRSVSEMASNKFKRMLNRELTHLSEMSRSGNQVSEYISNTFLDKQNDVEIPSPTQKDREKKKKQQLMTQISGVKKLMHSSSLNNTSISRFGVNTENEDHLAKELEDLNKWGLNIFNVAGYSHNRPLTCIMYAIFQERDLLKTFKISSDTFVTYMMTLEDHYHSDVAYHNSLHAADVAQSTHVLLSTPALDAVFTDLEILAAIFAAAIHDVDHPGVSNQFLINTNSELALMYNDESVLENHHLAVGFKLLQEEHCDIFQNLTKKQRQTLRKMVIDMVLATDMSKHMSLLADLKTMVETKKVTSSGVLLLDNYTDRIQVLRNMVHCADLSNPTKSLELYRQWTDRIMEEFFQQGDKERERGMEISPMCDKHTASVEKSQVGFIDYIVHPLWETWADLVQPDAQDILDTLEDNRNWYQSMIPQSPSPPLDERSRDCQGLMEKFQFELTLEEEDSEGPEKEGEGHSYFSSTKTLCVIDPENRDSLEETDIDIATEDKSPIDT
Procedure, shortened: as §1

[1] = value marked (m), read-out: ED50 for 5FOA growth assays, PDE4A1 (m)

| Structure (SMILES) | Composite Z score, PDE4A1 (PDE4A1) | Composite Z score, PDE4B3 (PDE4B3) | further results |
| --- | --- | --- | --- |
| CCN(CC)c1ncnc2sc3c(c12)CCCC3 [BC44] | 22.267 | 85.067 | – |
| CCC1CCc2c(sc3ncnc(N4CCOCC4)c23)C1 (centres unmarked) [BC33] | 50.594 | 42.416 | EC50 (PDE4A1; [1]): 23 µM; EC50 (PDE4A1; value marked (r), read-out: ED50 for 5FOA growth assays, PDE4A1 (r)): 28 µM |
| Cc1nc(NCCc2ccccc2)c2c3c(sc2n1)CCCC3 [Compound 2008G09] | 0.1429 | 0.0156 | – |
| CCCCn1c2ccccc2c2nc3ccccc3nc21 [2013, I20] | – | – | 1 Assay (20 uM) 4A1 (PDE4A1; PDE 4A1): 80.55 ND ND ND ND; 1 Assay (20 uM) 4B3 (PDE4B3; PDE 4B3): 0.29 ND ND ND ND |
| c1csc(CCNc2ncnc3sc4c(c23)CCC4)c1 [Compound 2005M12] | −1.628 | 0.0838 | – |
| CC(C)Cn1c2ccc(Br)cc2c2nc3ccccc3nc21 [2015, L04] | – | – | 1 Assay (20 uM) 4A1 (PDE4A1; PDE 4A1): 13.51 ND ND ND ND; 1 Assay (20 uM) 4B3 (PDE4B3; PDE 4B3): 1.17 ND ND ND ND |
| COC(=O)C1=C(C)N(C2CCCCC2)C(=O)/C1=C\c1cccs1 [Compound 22] | – | – | 2 Assay (2 uM), 4A1 (PDE4A1): 27.01; 2 Assay (2 uM), 4B3 (PDE4B3): 37.54; 1 Assay (20 uM) 4B3 (PDE4B3): 70.26 |
| COc1ccc2c(c1)[C@@]1(C)CCC[C@](C)(CO)C1CC2 (some centres unmarked) [Compound 2067M03] | – | – | 2 Assay (2 uM), 4A1 (PDE4A1; PDE 4A1): 6.63; 1 Assay (20 uM) 4A1 (PDE4A1; PDE 4A1): 11567; 2 Assay (2 uM), 4B3 (PDE4B3; PDE 4B3): 19.00; 1 Assay (20 uM) 4B3 (PDE4B3; PDE 4B3): 13.34 |
| COC(=O)C1=C(C)N(c2ccccc2)/C(=C/c2cccs2)C1=O [2008, K19] | – | – | 1 Assay (20 uM) 4B3 (PDE4B3): −0.61 ND ND ND ND |
| c1ccc(CCn2c3ccccc3c3nc4ccccc4nc32)cc1 [2019, G03] | – | – | 1 Assay (20 uM) 4A1 (PDE4A1; PDE 4A1): 36.37 ND ND ND ND; 1 Assay (20 uM) 4B3 (PDE4B3; PDE 4B3): 83.22 ND ND ND ND |
| CCCCN(CC)C(=O)c1sc2ncnc(N3CCN(c4ccc(OC)cc4)CC3)c2c1C [Compound 2007H06] | 0.0978 | 0.3145 | – |
| CNc1nc(=S)[nH]c2sc3c(c12)CCCC3 [2054 E08] | −1.088 | 0.2798 | – |
| Cc1ccc2c(c1)c1nc3ccccc3nc1n2C(C)C [Compound 41] | – | – | 1 Assay (20 uM) 4A1 (PDE4A1; PDE 4A1): 106.90; 1 Assay (20 uM) 4B3 (PDE4B3; PDE 4B3): 200.51 |
| C=CCn1c2ccc(Br)cc2c2nc3ccccc3nc21 [2017, C18] | – | – | 1 Assay (20 uM) 4A1 (PDE4A1; PDE 4A1): 49.17 ND ND ND ND; 1 Assay (20 uM) 4B3 (PDE4B3; PDE 4B3): 56.91 ND ND ND ND |
| O=C(/C=C/c1ccccc1)Nc1ncnc2sc3c(c12)CCC3 [Compound 2008K11] | −1.395 | 0.0615 | – |
| C=Cn1c2ccccc2c2nc3ccccc3nc21 [2033, H06] | – | – | 1 Assay (20 uM) 4A1 (PDE4A1; PDE 4A1): 29.62 ND ND ND ND; 1 Assay (20 uM) 4B3 (PDE4B3; PDE 4B3): 103.11 ND ND ND ND |
| COC(=O)C1=C(C)N(c2ccccc2Cl)C(=O)/C1=C\c1cccs1 [Compound 27] | – | – | 2 Assay (2 uM), 4A1 (PDE4A1): 17.41; 2 Assay (2 uM), 4B3 (PDE4B3): 22.05; 1 Assay (20 uM) 4B3 (PDE4B3): −0.26 |
| Cc1sc2ncnc(Nc3ccccc3)c2c1C [BC64] | 24.925 | 0.3426 | EC50 (PDE4A1; [1]): 20 µM |
| COc1ccccc1CNC(=O)c1sc2ncnc(N3CCN(c4ccccc4F)CC3)c2c1C [2041 E21] | 1.9156 | −0.408 | – |
| CCc1ccc2c(c1)c1nc3ccccc3nc1n2CC [2015, P06] | – | – | 1 Assay (20 uM) 4A1 (PDE4A1; PDE 4A1): 23.52 ND ND ND ND; 1 Assay (20 uM) 4B3 (PDE4B3; PDE 4B3): 0.13 ND ND ND ND |
| N#Cc1sc2sc(C#N)c(-c3ccco3)c2c1N [Compound 30] | – | – | 2 Assay (2 uM), 4A1 (PDE4A1): 4.56; 2 Assay (2 uM), 4B3 (PDE4B3): 5.21; 1 Assay (20 uM) 4B3 (PDE4B3): 4.67 |
| COC(=O)C1/C(=C/c2cccc(OC)c2O)C(=O)N(c2ccccc2F)C1C (centres unmarked) [2008, C21] | – | – | 1 Assay (20 uM) 4B3 (PDE4B3): 24.16 ND ND ND ND |
| COC(=O)C1=C(C)N(c2ccc(C(C)C)cc2)C(=O)/C1=C\c1ccco1 [2008, 019] | – | – | 1 Assay (20 uM) 4B3 (PDE4B3): −2.99 ND ND ND ND |

The next lines start with results.

| Composite Z score, PDE4A1 (PDE4A1) | Composite Z score, PDE4B3 (PDE4B3) | Structure (SMILES) | further results |
| --- | --- | --- | --- |
| 3.0133 | 1.7278 | COc1cc(OC)c(NC(=O)c2sc3ncnc(N4CCCCC4C)c3c2C)cc1Cl (centres unmarked) [Compound 2040J10] | – |
| 0.407 | 0.1698 | CC(C)CC(Nc1ncnc2sc3c(c12)CCC3)C(=O)O (centres unmarked) [Compound 2012H20] | – |
| −0.629 | 33.162 | Cc1c(C(=O)N(C)Cc2ccccc2)sc2ncnc(N3CCN(c4ccccc4)CC3)c12 [Compound 2041G21] | – |
| 0.2744 | 7.48 | Cc1c(C(=O)N2CCCCCC2)sc2ncnc(N3CCN(c4ccccc4)CC3)c12 [Compound 2041I21] | – |
| 3.8961 | 5.0875 | CCOC(=O)c1sc2nc(Cc3ccccc3)nc(NCCC3CCCCC3)c2c1C [Compound 2040F07] | – |
| 12.024 | 3.1975 | Cc1nc(N2CCC(C)CC2)c2c(C)c(C(=O)N3CCN(c4ccc(F)cc4)CC3)sc2n1 [Compound 2040N10] | – |
| 7.3705 | 12.239 | CCN(CC)c1nc(C)nc2sc(C(=O)N3CCCCCC3)c(C)c12 [Compound 2040N12] | – |
| 32.257 | 43.053 | COc1ccc(CCNc2ncnc3sc4c(c23)CCCC4)cc1 [Compound 2012B19] | – |
| 2.8 | −0.716 | O=C(O)CCNc1ncnc2sc3c(c12)CCCC3 [Compound 2012O16] | – |
| −0.307 | 0.0285 | CCNc1nc(SCC(=O)NC(=O)NCc2ccccc2)nc2sc3c(c12)CCN(C)C3 [Compound 2054N05] | – |
| 14.925 | −1.056 | Cc1c(C(=O)NCCC2CCCCC2)sc2ncnc(N3CCCCC3C)c12 (centres unmarked) [Compound 2040H10] | – |
| 11.659 | −0.456 | CCC(C)NC(=O)c1sc2nc(C)nc(N(C)c3ccc(C(C)C)cc3)c2c1C (centres unmarked) [Compound 2041K04] | – |
| 12.157 | 1.0041 | CCOC(=O)c1ccccc1NC(=O)c1sc2nc(C)nc(N(CC)CC)c2c1C [Compound 2040P12] | – |
| 1.1862 | −0.998 | c1nc(NCCCN2CCOCC2)c2c3c(sc2n1)CCCC3 [Compound 2051N22] | – |
| 1.67 | −0.543 | Cc1cc(C)c(C)c(S(=O)(=O)N2CCN(c3ncnc4sc5c(c34)CCCC5)CC2)c1C [Compound 2012L13] | – |
| 34.225 | 35.319 | O=C(Nc1ncnc2sc3c(c12)CCCCC3)c1ccc(F)cc1 [Compound 2012F09] | – |
| 7.0857 | 5.3667 | CCN(CC)c1ncnc2sc(C(=O)N(C)C3CCCCC3)c(C)c12 [Compound 2040J12] | – |
| 3.1355 | 4.66 | CCOC(CNc1nc(C)nc2sc3c(c12)CCCC3)OCC [Compound 2040D04] | – |
| 3.7863 | 9.0572 | CCNc1nc(SCC(=O)OCC)nc2sc3c(c12)CCC(C)C3 (centres unmarked) [Compound 2053H16] | – |
| 2.4965 | 0.936 | OCCNc1ncnc2sc3c(c12)CCCC3 [Compound 2051H22] | – |
| 5.2983 | −0.545 | COc1ccc(NC(=O)c2sc3nc(C)nc(N(C)c4ccc(C(C)C)cc4)c3c2C)c(OC)c1 [Compound 2041I04] | – |
| 11.225 | 16.5 | Cc1nc(N2CCCCC2)c2c(C)c(C(=O)Nc3cccc(C(F)(F)F)c3)sc2n1 [Compound 2040F10] | – |
